Laboratory results: patent US9303069B2, “Peptides for treating cancer” (University of Mississippi Medical Center, priority 2014, dated 2016)
Ends that are not written are not given here.

Columns and labels:
[1] = test system: BRCA1-IRIS, TrkB, ErbB2, AKT, p-AKT, p-FOXO, Cyclin D1, Bcl-2 and survivin; experiment: Expression of growth and survival proteins in HOSE and HOSE/IRIS cells (Western); format: cell-based, human; conditions: IRIS peptide 5 μM, cisplatin 10 μM, combination 2.5 μM IRIS peptide + 5 μM cisplatin
Excerpt: HOSE cells overexpressing IRIS show a higher degree of resistance to cisplatin than HOSE cells (compare blue to black line in FIG. 30).

AKT, ERK, MDM2 and Skp2 = experiment: Signalling proteins in SKOV3 and OVCAR3 cells (Western); format: cell-based, human
Excerpt: Finally, to further dissect the IRIS-induced cisplatin resistance pathway, PI3′K/AKT (using […]) and ERK (using PD98059) were inactivated and compared to IRIS peptide in two aggressive ovarian cancer cell lines. […] Phosphorylation of cytoplasmic or nuclear FOXO3a by p-AKT and/or p-ERK promotes MDM2 binding and priming ubiquitylation, which is then followed by Skp2 branching ubiquitylation and FOXO3a degradation (Huang and Tindall, 2011). FOXO was less phosphorylated in LY, PD as well as IRIS-silenced/inactivated SKOV3 or OVCAR3 cells (FIG. 34). […] Consistently, in BRCA1-IRIS silenced/inactivated cells accumulation of unphosphorylated/stabilized FOXO3a was detected. In contrast, FOXO3a was still decreased to different degrees in LY or PD treated cells (FIG. 34).

SKOV3 cells [2] = experiment: Three-dimensional (3D) growth / acini formation in matrigel, SKOV3; format: cell-based, human
[3] = test system: HME/IRIS, MDA-MB-231 and MDA-MB-468 cells; experiment: Acini formation in matrigel-coated wells, breast cell lines; format: cell-based, human; conditions: day 10; peptide added every third day
Excerpt: Next, it was considered whether BRCA1-IRIS depletion or inactivation could impact the aggressive behavior in breast cancer cell lines. BRCA1-IRIS silenced HME, HME/IRIS, MDA-MB-231 and MDA-MB-468 cells were layered on matrigel-coated wells. Moreover, parental cell lines were layered on the matrigel and grown in the presence of scrambled or IRIS peptide (added every third day). […] On day 10, HME acini became slightly bigger but remained round (FIG. 89, 1st column and FIG. 90). Acini formed by HME/IRIS, MDA-MB-231 and MDA-MB-468 were large/non-round on day 10 (FIG. 89, 1st column and FIGS. 90 and 91). BRCA1-IRIS depletion (FIG. 89, 2nd column and FIG. 91) or inactivation (FIG. 89, 3rd column and Suppl. FIG. 91) reverted this phenotype back to near normal “small/round” acini. Quantitatively, BRCA1-IRIS overexpression led to >3-fold increase in HME cells aggressiveness, and its depletion or inactivation reduced that phenotype in tumor cells by >3 fold (FIG. 90 and FIG. 91).

BRCA1-IRIS and survivin = experiment: IHC of SKOV3 tumors for BRCA1-IRIS and survivin; format: in vivo, mice; conditions: SKOV3 tumors after treatment
Excerpt: Isolated tumors were mounted, sectioned and IHC stained for BRCA1-IRIS and survivin. […] It is possible that SKOV3 contain a heterogeneous population of cells that differ in their BRCA1-IRIS expression and thus that the remaining tumors are from those expressing no or low BRCA1-IRIS.
Immunohistochemistry (IHC). Ovarian tissue microarrays comprised of normal, cancer and metastatic tissues were purchased from US Biomax, Inc. Paraffin-embedded tissue sections were de-waxed in xylene and rehydrated in alcohol. Antigen-retrieval for FOXO3a and survivin was performed by heating the slides in citrate buffer (10 μM, pH 6.0) using microwave for 10 minutes. Slides were then cooled to room temperature (RT) and washed with water followed by PBS for 15 minutes each. Antigen-retrieval for BRCA1-IRIS was performed by incubating the slides in pepsin (10 μM) for 20 minutes at 37° C. Endogenous peroxidase activity was suppressed by treating the slides with 3% hydrogen peroxide for 10 minutes. After washing steps slides were incubated for 1 hour at room temperature with antibodies to human FOXO3a (Cell Signaling Technology, USA 1:400) and survivin (Cell Signaling Technology, USA 1:400). For BRCA1-IRIS staining, slides were incubated overnight at 4° C. with monoclonal BRCA1-IRIS antibody at a 1:75 dilution. […]

[4] = test system: HME, MDA-MB-231, MDA-MB-468 and BT549 cells; experiment: Survival of breast cell lines after siRNA transfection followed by IRIS peptide; format: cell-based, human; conditions: siRNA 48 hours, then IRIS peptide 24 hours
Procedure: To rule out any off target effect of this peptide, HME, MDA-MB-231, MDA-MB-468 and BT549 cells were first transfected with luciferase (siLuc) or BRCA1-IRIS (siIRIS) siRNA for 48 hours before they were exposed to increasing concentrations of IRIS peptide for an additional 24 hours. As would be expected from treatments that target the same target, whether inactivating BRCA1-IRIS (FIG. 81) or depleting its mRNA first (FIG. 82) the percentages of cells remained following these treatments were identical (see FIG. 83).
Small interfering RNA transfections. Specific siRNAs for luciferase (negative control) or human BRCA1-IRIS were obtained from Ambion, USA. Transfection was done using Oligofectamine™ reagent (GibcoBRL Inc, USA) and standard protocol (for reference see ElShamy and Livingston, 2004). Knockdwon of the target protein was usually confirmed by Western blotting 72 hours later. Cell viability was evaluated by MTS or by manual counting after 72 hours of siRNA transfection or combined with paclitaxel (24 hour exposure). Each experiment was done in triplicate, repeated three separate times

SKOV3 cells [5] = experiment: Tumor-sphere forming assay, SKOV3; format: cell-based, human; conditions: SKOV3, ultra-low binding dishes, two weeks; IRIS peptide 5 μM every third day
Procedure: Tumor-sphere: SKOV3 cells treated with scrambled or IRIS peptide (5 μM, added every third day) or expressing BRCA1-IRIS shRNA were grown in ultra-low binding culture dishes as single cells. […] BRCA1-IRIS silencing led to ˜7 fold decrease in tumor-sphere number (FIG. 43) and diameter (FIG. 43, inset), and an even more pronounced effect was detected with IRIS peptide (FIG. 43, and inset).
Tumor-sphere forming assay. Subconfluent monolayer cells were trypsinized and dissociated thoroughly to prepare single cell suspension. 1000 cells were plated, per well, onto ultra-low attachment 6-well plates (Corning Life Sciences, Union City, Calif.) in Dulbecco's modified Eagle's medium (DMEM)/F12 supplemented with 10% FBS, 2% B27 (Invitrogen), 10 ng/ml basic-fibroblast growth factor and 10 ng/mL epidermal growth factor. Cells were then incubated at 37° C. in humidified air with 10% CO2. 500 μl of medium was added to each well every 3 days, the medium containing the scrambled or IRIS peptide. […]

“RRIRPRPPRLPRPRPRPLPFPRPGIGTRFLCLPQSIYRSELNVYAFGEHILQISKYS [IRIS peptide]” was tested, and the “expression of BRCA1-IRIS, TrkB, ErbB2, AKT, p-AKT, p-FOXO, Cyclin D1, Bcl-2 and survivin” value [1] was “significant decrease”, the “AKT and ERK expression and activation” value (AKT, ERK, MDM2 and Skp2) was “decreased expression and inactivated AKT and ERK” and the “decrease in ability to form invasive structures in matrigel” value (SKOV3 cells [2]; SKOV3 cells) was greater than 500 fold. The acini phenotype (SKOV3 cells [2]; SKOV3 in matrigel, day 10, peptide added every third day) was “slightly bigger/organized/round acini”, the “reduction of aggressive (large/non-round) acini phenotype in tumor cells” value [3] was greater than 3 fold and the “BRCA1-IRIS and survivin staining of remaining tumor” value (BRCA1-IRIS and survivin) was “almost complete absence of BRCA1-IRIS and survivin staining”. For the same sequence, the “percentages of cells remaining, IRIS peptide after siIRIS versus after siLuc” value [4] was “identical” and the tumor-sphere formation (SKOV3 cells [5]) was “formed no tumor-spheres”.
